# pEC50: −log10 of the molar value.
# System: HCV 1b RLuc cells (dicistronic genotype 1b Con1 replicon)
# Test: Renilla luciferase (RLuc)-based HCV replicon reporter assay
# Format: cell-based, HCV genotype 1b
# Details: Hepatitis C virus, 72 h, HCV 1b RLuc replicon, 72 hours; read-out: Activity (antiviral potency [EC50])
# In short: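 EC50 values were calculated by non-linear regression of Renilla luciferase signal from lysed cells after 72 h of compound exposure. Cells harboured a genotype 1b Con1 dicistronic replicon encoding RLuc. Compounds were serially diluted in DMSO from 10 mM stocks into culture media.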
row,Compound,pEC50
1,COC(=O)N[C@H](C(=O)N1[C@@H]2CC[C@@H](C2)[C@H]1c1nc2ccc(-c3ccc(-c4ccc(-c5ccc6nc([C@@H]7[C@H]8CC[C@H](C8)N7C(=O)[C@@H](NC(=O)OC)C(C)C)[nH]c6c5)cc4)cc3)cc2[nH]1)C(C)C,9.55
2,COC(=O)N[C@H](C(=O)N1CCC[C@H]1c1ncc(-c2ccc3c(c2)CN(C)C(=O)c2cc(-c4cnc([C@@H]5CCCN5C(=O)[C@@H](NC(=O)OC)C(C)C)[nH]4)ccc2-3)[nH]1)C(C)C,8.67
3,COC(=O)N[C@@H](CCS(C)(=O)=O)C(=O)N1C[C@@H](C#N)C[C@H]1c1ncc(-c2ccc(-c3ccc4cc(-c5cnc([C@@H]6CC7(CC7)CN6C(=O)[C@@H](NC(=O)OC)C(C)C)[nH]5)ccc4c3)cc2)[nH]1,9.59
4,COC(=O)N[C@H](C(=O)N1CC2(CC2)C[C@H]1c1ncc(-c2ccc(-c3ccc4cc(-c5cnc([C@@H]6[C@H]7CC[C@H](C7)N6C(=O)[C@@H](NC(=O)OC)C(C)(C)OC)[nH]5)ccc4c3)cc2)[nH]1)C(C)C,10.81
5,COC(=O)N[C@H](C(=O)N1CCC[C@H]1c1ncc(-c2ccc(C#Cc3ccc(-c4cnc([C@@H]5CC(F)(F)CN5C(=O)[C@@H](NC(=O)OC)C(C)C)[nH]4)cc3)cc2)[nH]1)C(C)C,11.04
6,COC(=O)N[C@H](C(=O)N1CCC[C@H]1C(=O)Nc1nccc2cc(-c3ccc(-c4cnc([C@@H]5CCCN5C(=O)[C@@H](NC(=O)OC)C(C)C)[nH]4)cc3)ccc12)C(C)C,9.14
7,COC(=O)N[C@H](C(=O)N1CCC[C@H]1c1ncc(C23CCC(c4cccc(-c5cnc([C@@H]6CCCN6C(=O)[C@H](NC(=O)OC)C(C)C)[nH]5)c4)(CC2)CC3)[nH]1)C(C)C,≤ 7.35
8,COC(=O)N[C@H](C(=O)N1CCC[C@H]1c1ncc(-c2ccc(-c3ccc4cc(-c5cnc([C@@H]6CCCN6C(=O)[C@@H](NC(=O)OC)C(C)C)[nH]5)ccc4c3)cc2)[nH]1)c1ccc(F)cc1,10.37
9,COC(=O)N[C@H](C(=O)N1[C@@H]2CC[C@@H](C2)[C@H]1c1ncc(-c2ccc3cc(-c4ccc(-c5cnc([C@@H]6CC7(CC7)CN6C(=O)[C@@H](NC(=O)OC)C6CC6)[nH]5)cc4)ccc3c2)[nH]1)C(C)C,9.54
10,COC(=O)N[C@H](C(=O)N1CCC[C@H]1c1ncc(-c2ccc(-c3ccc(-c4cnc(CN5CCC[C@@H](NC(=O)OC(C)(C)C)C5=O)[nH]4)cc3)cc2)[nH]1)C(C)C,10.46
11,COC(=O)N[C@H](C(=O)N1CCC[C@H]1c1ncc(-c2ccc3cc(-c4ccc(-c5cnc([C@@H]6CCCN6C(=O)[C@@H](OC(=O)N(C)C)c6ccccc6)[nH]5)cc4)ccc3c2)[nH]1)C(C)C,10.10
12,COC(=O)NC(C(=O)N1CCC[C@H]1c1ncc(-c2cc3c(C)c4sc(-c5cnc([C@@H]6CCCN6C(=O)C(NC(=O)OC)c6ccccc6)[nH]5)cc4c(C)c3s2)[nH]1)c1ccccc1 (stereo partly drawn),10.67
13,CN[C@H](C(=O)N1CCC[C@H]1c1nc2ccc(-c3ccc(-c4ccc(-c5ccc6nc([C@@H]7CCCN7C(=O)[C@@H](NC(=O)OC)C(C)C)[nH]c6c5)cc4)cc3)cc2[nH]1)C(C)C,10.36
14,COC(=O)N[C@H](C(=O)N1CCC[C@H]1c1ncc(-c2ccc3cc(-c4ccc5nc([C@@H]6CCN6C(=O)[C@H](NC(=O)OC)c6ccccc6)[nH]c5c4)ccc3c2)[nH]1)C(C)C,10.15
15,COC(=O)N[C@@H](CCOCC(F)(F)F)C(=O)N1CCC[C@H]1c1ncc(-c2ccc(-c3ccc(-c4cnc([C@@H]5CCCN5C(=O)[C@@H](NC(=O)OC)C(C)C)[nH]4)cc3)cc2)[nH]1,10.56
16,COC(=O)N[C@H](C(=O)N1C[C@@H](C#N)C[C@H]1c1ncc(-c2ccc(C#Cc3ccc(-c4cnc([C@@H]5CC6(CC6)CN5C(=O)[C@@H](NC(=O)OC)C(C)C)[nH]4)cc3)cc2)[nH]1)C(C)C,10.83
17,COC(=O)N[C@H](C(=O)N1CCC[C@H]1c1ncc(C(=O)N2CCN(c3ccc(-c4cnc([C@@H]5CCCN5C(=O)[C@@H](NC(=O)OC)C(C)C)[nH]4)cc3)CC2)[nH]1)C(C)C,< 7.35
18,COC(=O)N[C@@H](CCC(F)(F)F)C(=O)N1CCC[C@H]1c1ncc(-c2ccc(-c3ccc(-c4cnc([C@@H]5CCCN5C(=O)[C@H](CCC(F)(F)F)NC(=O)OC)[nH]4)cc3)cc2)[nH]1,10.20
19,COC(=O)N[C@H](C(=O)N1CCC[C@H]1c1ncc(-c2ccc(-c3ccc(-c4cnc(CN5CCC[C@H](N)C5=O)[nH]4)cc3)cc2)[nH]1)C(C)C,8.32
20,COC(=O)N[C@H](C(=O)N1CCC[C@H]1c1ncc(-c2ccc3c(c2)Nc2ccc(-c4cnc([C@@H]5CCCN5C(=O)[C@@H](NC(=O)OC)C(C)C)[nH]4)cc2S3)[nH]1)C(C)C,8.76
21,COC(=O)N[C@@H](C)C(=O)N1[C@@H]2CC[C@@H](C2)[C@H]1c1ncc(-c2ccc3c(c2)CCc2cc(-c4cnc([C@@H]5CCCN5C(=O)[C@@H](NC(=O)OC)C(C)C)[nH]4)ccc2-3)[nH]1,10.90

row,Compound,pEC50
1,COC(=O)N[C@H](C(=O)N1CCC[C@H]1c1ncc(-c2ccc3cc(C#Cc4ccc5nc([C@@H]6[C@H]7CC[C@H](C7)N6C(=O)[C@@H](NC(=O)OC)C(C)C)[nH]c5c4)ccc3c2)[nH]1)C(C)C,10.71
2,COC(=O)N[C@H](C(=O)N1CCC[C@H]1c1ncc(-c2ccc3c(c2)CCc2cc(-c4ccc5nc([C@@H]6[C@H]7CC[C@H](C7)N6C(=O)[C@@H](NC(=O)OC)C(C)C)[nH]c5c4)ccc2-3)[nH]1)C(C)C,11.27
3,COC(=O)N[C@H](C(=O)N1CCC[C@H]1c1ncc(-c2ccc3c(c2)CCc2cc(-c4ccc5nc([C@@H]6CCCN6C(=O)[C@@H](NC(=O)OC)C(C)C)[nH]c5c4)ccc2-3)[nH]1)C(C)C,11.43
4,COC(=O)N[C@H](C(=O)N1CCC[C@H]1c1ncc(-c2ccc3c4ccc(-c5cnc([C@@H]6CCCN6C(=O)[C@@H](NC(=O)OC)C(C)C)[nH]5)cc4[s+]([O-])c3c2)[nH]1)C(C)C,10.49
5,COC(=O)NC(C(=O)N1CCC[C@H]1c1ncc(-c2ccc(-c3ccc4cc(-c5cnc([C@@H]6CCCN6C(=O)[C@@H](NC(=O)OC)C(C)C)[nH]5)ccc4c3)cc2)[nH]1)C1CCS(=O)(=O)CC1 (stereo partly drawn),9.87
6,COC(=O)N[C@H](C(=O)N1CCC[C@H]1c1ncc(-c2ccc(C#CC#Cc3ccc(-c4cnc([C@@H]5CCCN5C(=O)[C@@H](NC(=O)OC)C(C)C)[nH]4)cc3)cc2)[nH]1)C(C)C,9.42
7,COC(=O)N[C@H](C(=O)N1CC2(CC2)C[C@H]1c1ncc(-c2ccc(-c3ccc4cc(-c5cnc([C@@H]6C[C@H](C#N)CN6C(=O)[C@@H](NC(=O)OC)C(C)(C)C)[nH]5)ccc4c3)cc2)[nH]1)C(C)C,10.78
8,COC(=O)N[C@H](C(=O)N1CCC[C@H]1c1ncc(-c2ccc3c(c2)CCc2cc(-c4cnc([C@@H]5[C@H]6CC[C@H](C6)N5C(=O)[C@@H](NC(=O)OC)C(C)C)[nH]4)ccc2-3)[nH]1)C(C)C,11.06
9,COC(=O)N[C@H](C(=O)N1CCC[C@H]1c1nc(-c2cccc(Oc3ccc(-c4cnc([C@@H]5CCCN5C(=O)[C@@H](NC(=O)OC)C(C)C)[nH]4)cc3)c2)c[nH]1)C(C)C,10.27
10,COC(=O)N[C@H](C(=O)N1CCC[C@H]1c1ncc(-c2ccc3cc(-c4ccc(-c5cnc([C@@H]6CCCN6C(=O)[C@H](NC(=O)OC)c6ccccc6)[nH]5)cc4)ccc3c2)[nH]1)C(C)C,11.09
11,COC(=O)N[C@H](C(=O)N1[C@@H]2CC[C@@H](C2)[C@H]1c1ncc(-c2ccc(-c3ccc4cc(-c5cnc([C@@H]6CC7(CC7)CN6C(=O)[C@@H](NC(=O)OC)C6CCOCC6)[nH]5)ccc4c3)cc2)[nH]1)C(C)C,10.87
12,COC(=O)N[C@H](C(=O)N1CCC[C@H]1c1ncc(C#CC#Cc2cnc([C@@H]3CCCN3C(=O)[C@@H](NC(=O)OC)C(C)C)[nH]2)[nH]1)C(C)C,8.88
13,COC(=O)N[C@H](C(=O)N1CCC[C@H]1c1ncc(-c2ccc3cc(-c4ccc(-c5cnc([C@@H]6CCCN6C(=O)[C@H](OC(=O)N(C)C)c6ccccc6)[nH]5)cc4)ccc3c2)[nH]1)C(C)C,11.08
14,COC(=O)N[C@H](C(=O)N1CCC[C@H]1c1ncc(-c2ccc3c(c2)sc2cc(-c4ccc5nc([C@@H]6[C@H]7CC[C@H](C7)N6C(=O)[C@@H](NC(=O)OC)C(C)C)[nH]c5c4)ccc23)[nH]1)C(C)C,11.43
15,CNC(=O)O[C@H](C(=O)N1CCC[C@H]1c1ncc(-c2ccc(C#Cc3ccc(-c4cnc([C@@H]5CCCN5C(=O)[C@@H](NC(=O)OC)C(C)C)[nH]4)cc3)cc2)[nH]1)C(C)C,9.90
16,COC(=O)N[C@H](C(=O)N1[C@@H]2CC[C@@H](C2)[C@H]1c1ncc(-c2ccc(-c3ccc(-c4cnc([C@@H]5[C@H]6CC[C@H](C6)N5C(=O)[C@@H](NC(=O)OC)C(C)C)[nH]4)cc3)cc2)[nH]1)C(C)C,11.00
17,COC(=O)N[C@@H](CCOC(F)F)C(=O)N1[C@@H]2CC[C@@H](C2)[C@H]1c1ncc(-c2ccc(-c3ccc4cc(-c5cnc([C@@H]6CC7(CC7)CN6C(=O)[C@@H](NC(=O)OC)C(C)C)[nH]5)ccc4c3)cc2)[nH]1,11.10
18,CC[C@H](C)[C@H](NC(=O)OC)C(=O)N1C[C@@H](C#N)C[C@H]1c1ncc(-c2ccc3cc(-c4ccc(-c5cnc([C@@H]6CC7(CC7)CN6C(=O)[C@@H](NC(=O)OC)C(C)C)[nH]5)cc4)ccc3c2)[nH]1,11.00
19,C=C1C[C@@H](c2ncc(-c3ccc(-c4ccc5cc(-c6cnc([C@@H]7CCCN7C(=O)[C@@H](NC(=O)OC)C(C)C)[nH]6)ccc5c4)cc3)[nH]2)N(C(=O)[C@@H](NC(=O)OC)C(C)C)C1,10.95
20,COC(=O)N[C@H](C(=O)N1CCC[C@H]1c1ncc(-c2ccc3cc(-c4ccc(-c5cnc([C@@H]6CCCN6C(=O)[C@@H](NC(=O)OC)C(C)C)[nH]5)cc4)ccc3c2)[nH]1)c1ccccc1,10.52
21,COC(=O)N[C@@H](CC#N)C(=O)N1[C@@H]2CC[C@@H](C2)[C@H]1c1nc2ccc(-c3ccc4c(c3)C(F)(F)c3cc(-c5cnc([C@@H]6CC7(CC7)CN6C(=O)[C@@H](NC(=O)OC)C(C)C)[nH]5)ccc3-4)cc2[nH]1,11.40

# — patent US8822430B2 (Gilead Sciences, Inc., priority 2009, dated 2014)
